This is an account of results in patent publication US20080275111A1, “Novel Use of Lignan Compounds” (priority 2005, published 2008).

In data set [1] the test system is cell line HT-22. Description: Reactive oxygen species production in cell line HT-22 (CM-H2DCFDA). The conditions noted are these: 5 μM compound, 8 hours. Format: cell-based. As to the method:
A cell line HT-22 (obtained from Dr. David Schubert) derived from the hippocampus playing a part in memory of the brain was treated with 5 mM of glutamate and 5 μM of the lignan compound of the present invention simultaneously for 8 hours. As a control, the cell line HT-22 was not treated with the lignan compound of the present invention. The treated cell line HT-22 was then treated with CM-H2DCFDA (chloromethyl derivative of dichlorodihydrofluorescein diacetate, Molecular Probes) to analyze the production of reactive oxygen species.

A further data set deals with iNOS. As to the kind of experiment: iNOS expression in LPS-activated microglia (Western blotting). The conditions noted are these: 1 μg/ml LPS, compound 2.5 and 10 μM, 16 or 24 hours. The class given is cell-based, mouse. The text has this:
In Example <6-2>, it was observed that the NO production induced by LPS in the tissue-cultured microglia of mouse was inhibited by the lignan compound of the present invention. NO is produced by iNOS enzyme of which expression is induced by activation of microglia. Therefore, the correlation between the reduction of NO production and inhibition of iNOS expression was examined. Additionally, a change in the amount of a protein COX-2 participating in the production of other inflammation-mediating materials was examined. For Western blotting analysis, tissue-cultured microglia was cultured in a 60 mm cell culture dish up to a concentration of 7.5×10^5 cells/ml. After 1 day of cultivation, the activation of microglia was induced by 1 μg/ml of LPS (Sigma) treatment. Simultaneously, the microglia was also treated with 2.5 and 10 μM of the lignan compound of the present invention together with LPS, and incubated for 16 or 24 hours. The incubated cell was washed with cold PBS 2 times, and then dissolved in a cold lysis buffer (1% SDS, 1 mM Na3VO4, 10 mM NaF, 10 mM Tris-Cl, pH 7.4 containing 1× protease inhibitors cocktail). […] Then, the amount of proteins was quantified according to BCA method. […]
NaCl containing 0.1% Tween 20) 3 times. […] Again, the membrane was then washed with TBS-T solution 3 times, and each band on the membrane was analyzed using ECL system (Sigma).

In data set [2] the test system is cell line HT-22. As to the kind of experiment: Cytotoxicity in cell line HT-22. The class given is cell-based. Particulars: HT-22, 1, 5 and 10 μM, 24 hours, stated for 10 μM. The protocol: In order to examine the cytotoxicity effect of macelignan itself, a cell line HT-22 derived from the hippocampus was treated with macelignan at concentrations (1, 5 and 10 μM) for 24 hours.

For a further data set, the system named is NO. Description: NO production in LPS-activated microglia (Griess reagent). Format: cell-based, mouse. The conditions noted are these: 1 μg/ml LPS. As to the method: When the microglia is activated, the expression of NO as a mediator of nerve transmission and immune response is induced (Liu, B. et al., Ann. N.Y. Acad. Sci., 962:318-331, 2002). Therefore, the effect of the lignan compound of the present invention on the NO production in microglia was examined. First, only the neocortex was isolated from the brain of 1 day-old mouse. Then, a microglia-astroglia mixture was prepared according to a method known in the art (Kim, H. Y. et al., J. Immunol., 171:6072-6079, 2003). The microglia-astroglia mixture was then divided at a ratio of 4 flasks/1 head and cultured in MEM medium containing 10% FBS in a 75 cm^2 flask for 2 weeks. The microglia was separated from the cultured cells and cultured in MEM medium containing 5% FBS for 24 hours. The tissue-cultured microglia was inoculated into MEM medium containing 5% FBS at a concentration of 1.5×10^4 cells/well and cultured in a 96-well plate. After 1 day of cultivation, the microglia was treated with 1 μg/ml of LPS (Sigma) to induce activation of the microglia. […] Then, the cell-cultured medium was collected and NO production was measured. The NO production was analyzed by measuring the amount of nitrite as a stable metabolite of NO in the cell-cultured medium using Griess reagent kit (Molecular Probe). […] Then, the absorbance of the resulting solution was measured with a microplate reader at 548 nm.
(In general: Nitrite, measured by Griess reagent, commonly stands in for NO production.)

In the case of `COc1cc(C[C@H](C)[C@H](C)Cc2ccc3c(c2)OCO3)ccc1O` [macelignan, (8R,8′S)-7-(3,4-methylenedioxyphenyl)-7′-(4-hydroxy-3-methoxyphenyl)-8,8′-dimethylbutane], the “production of reactive oxygen species induced by glutamate” value in the data set with cell line HT-22 [1] (HT-22, 5 mM glutamate) is given as “inhibited”. Also, the “production of reactive oxygen species occurred naturally in a cell” value in the data set with cell line HT-22 [1] (HT-22 not treated with glutamate) is listed as “significantly inhibited”. Besides, the “expression of iNOS induced by LPS” value in the data set on iNOS is “inhibited in a concentration dependent manner”. Also, the figures for the cytotoxicity entry in the data set on cell line HT-22 [2] and with cell line HT-22 [2] (listed as lignan compound of the present invention) were “did not induce cytotoxicity” and “did not show cytotoxicity”, respectively. The “NO production induced by LPS” value in the data set on NO (compound 2.5 and 10 μM, 16 or 24 hours) is reported as “dose-dependently inhibited”. The inhibition (in general, how much of the control response was suppressed) at 10 µM in the data set with NO (Mus musculus, 10 μM compound, read-out: inhibition rate of NO production) is around 90%.
